Source: patent US11203608B2, “Platinum-containing compounds, and related compositions and uses thereof” (Massachusetts Institute of Technology, priority 2019, dated 2021)
Read-outs that look alike come from different tables or passages of the source.

How the values were obtained:
[1] = tested on: APC−/−; TdTomato+ (A-tdt) organoids; experiment: Viability of A-tdt murine colorectal cancer organoids, resazurin assay; format: cell-based; details: 72-h exposure (table title), read-out: IC50 against A-tdt organoids
Text: (§1) Colonic crypts were isolated and colon organoids were generated from the following mouse genotypes on a C57Bl/6 background: 1. Rosa-LSL-TdTomato (hereafter LSL-tdt), 2. P53^f1/f1; LSL-tdt, and 3. LSL-KRAS^G12D/WT; P53^fl/fl; LSL-tdt mice. Subsequently, the pSECC-APC plasmid (carrying Cre, Cas9, and sgAPC) was transfected into each of the above three genotypes of colon organoids. This transfection strategy generated, in a single step, the following colorectal cancer organoids, including 1. APC^−/−; TdTomato^+ (A-tdt), 2. APC^−/−; P53^−/−; TdTomato^+ (AP-tdt), and 3. APC^−/−; KRAS^G12D/WT; P53^−/−; TdTomato^+ (AKP-tdt). Organoids of the desired genotype were selected for by Wnt/Rspo withdrawal for APC^−/−, Nutlin-3 addition for P53^−/−, and EGF withdrawal for KRAS^G12D.
(§2) Twenty four hours after seeding the organoids, a media change was performed and dose responses of oxaliplatin, doxorubicin and doxaliplatin were added. […] Organoids were cultured in Advanced DMEM/F12 supplemented with 2 mM GlutaMAX, 1% Penicillin-Streptomycin, 2% B27, and Y-27632 (10 μM).

[2] = tested on: APC−/−; P53−/−; TdTomato+ (AP-tdt) organoids; experiment: Viability of AP-tdt murine colorectal cancer organoids, resazurin assay; format: cell-based; details: 72-h exposure (table title), read-out: IC50 against AP-tdt organoids
Text: as §1, §2

[3] = tested on: APC−/−; KRASG12D/WT; P53−/−; TdTomato+ (AKP-tdt) organoids; experiment: Viability of AKP-tdt murine colorectal cancer organoids, resazurin assay; format: cell-based; details: 72-h exposure (table title), read-out: IC50 against AKP-tdt organoids
Text: as §1, §2

[4] = tested on: APC−/−; KRASG12D/WT; P53−/− (AKP) organoids; experiment: Viability of AKP murine colorectal cancer organoids; format: cell-based; details: 72-h exposure, read-out: IC50 against AKP organoids
Text: (§3) To generate 4. APC^−/−; KRAS^G12D/WT; P53^−/−; (AKP) and 5. APC^−/−; KRAS^G12D/WT; P53^−/−; MSH2^−/− (AKP-MSH2) colon cancer organoids, colonic crypts were isolated and colon organoids were generated from the following mouse genotypes on a C57Bl/6 background: 4. LSL-KRAS^G12D/WT; P53^fl/fl mice and 5. LSL-KRAS^G12D; P53^fl/fl; MSH2^fl/fl mice. Subsequently, the pSECC-APC plasmid (carrying Cre, Cas9, and sgAPC) was transfected into each of the above two genotypes of colon organoids. Following pSECC-APC transfection, Wnt/Rspo withdrawal was performed and surviving (APC^−/−) single organoids were cloned and PCR genotyped for Cre mediated deletion of p53 and/or MSH2, and for Cre mediated activation of oncogenic KRAS^G12D.
as §2

[5] = tested on: APC−/−; KRASG12D/WT; P53−/−; MSH2−/− (AKP-MSH2) organoids; experiment: Viability of AKP-MSH2 murine colorectal cancer organoids; format: cell-based; details: 72-h exposure, read-out: IC50 against AKP-MSH2 organoids
Text: as §3, §2

[6] = tested on: HT-29 human colorectal adenocarcinoma; experiment: Cell growth, resazurin assay, HT-29; format: cell-based; details: 96-h exposure (table title), read-out: IC50 HT-29 (colon)
Method: (§4) Cells were cultured in 10 mL of Advanced DMEM/F12 (ADMEM/F12), supplemented with 5% FBS, 2 mM GlutaMAX, and 1% Penicillin-Streptomycin in 10 cm tissue culture plates. Cells were then plated into 96-well plates with about 2.5×10^3 cells per well. Cells were plated with 200 μL per well of ADMEM/F12 supplemented with 5% FBS, 2 mM GlutaMAX, and 1% Penicillin-Streptomycin. Cells were treated with dose responses of doxorubicin, oxaliplatin, or doxaliplatin upon plating. The cells were then cultured for 72 hours following drug treatment, and cell growth was measured by resazurin assay.

[7] = tested on: MDA-MB-231 human breast adenocarcinoma; experiment: Cell growth, resazurin assay, MDA-MB-231; format: cell-based; details: 96-h exposure (table title)
Method: as §4

[8] = tested on: PC3 human prostate adenocarcinoma; experiment: Cell growth, resazurin assay, PC3; format: cell-based; details: 96-h exposure (table title)
Method: as §4

U2OS human osteosarcoma = experiment: Cell growth, resazurin assay, U2OS; format: cell-based; details: 96-h exposure (table title), read-out: IC50 U2OS (bone)
Method: as §4

[9] = tested on: A549 human lung carcinoma; experiment: Cell growth, resazurin assay, A549; format: cell-based; details: 96-h exposure (table title)
Method: as §4

[10] = tested on: HL60 human leukemia cell line; experiment: Cell growth, resazurin assay, HL60; format: cell-based; details: 96-h exposure (table title)
Method: as §4

[11] = tested on: A2780 human ovarian cancer cell line; experiment: Cell growth, resazurin assay, A2780; format: cell-based; details: A2780, 72-h exposure
Method: as §4

[12] = tested on: doxorubicin-resistant A2780ADR human ovarian cancer cell line; experiment: Cell growth, resazurin assay, A2780ADR; format: cell-based; details: 72-h exposure
Method: as §4

[13] = tested on: cisplatin-resistant A2780CIS human ovarian cancer cell line; experiment: Cell growth, resazurin assay, A2780CIS; format: cell-based; details: 72-h exposure
Method: as §4

[14] = tested on: OVCAR8 human ovarian cancer cell line; experiment: Cell growth, resazurin assay, OVCAR8; format: cell-based; details: 72-h exposure
Method: as §4

[15] = tested on: A2780 human ovarian cancer cell line; details: human, 3 h
Method: (§5) ICP-MS was performed on an Agilent 7900 ICP-MS in helium mode.
(§6) The cells in a six-well plate were treated with oxaliplatin, doxaliplatin, or a mixture of doxorubicin and oxaliplatin at indicated concentration in 2 mL of Advanced DMEM/F12 (ADMEM/F12), supplemented with 5% FBS, 2 mM GlutaMAX, and 1% Penicillin-Streptomycin. After three hours, the media were removed. The cells were washed with xl PBS buffer containing EDTA (100 μM, 4 mL×2). To each well, MilliQ water (1.0 mL) was added. After 15 min, the cells were suspended. A portion of the resulting cell lysate (900 μL) was transferred to an Eppendorf tube. The samples were frozen in liquid nitrogen and thawed at room temperature. This procedure was repeated for three times. The insoluble lysate was pelleted (10000 rpm for 10 min). […] Pierce 660 nm Protein solution (200 μL) was added to each well. An aliquot of the lysate (14.2 μL) was added to each well. The plate was shaken and read on a plate reader. The remaining samples were frozen at liquid nitrogen temperature and lyophilized. The dried material was digested with Aristar® ultrapure concentrated nitric acid (70%) at 70° C. for one hour. An aliquot of this solution (142 μL) was mixed with molecular biology grade water (2000 μL) and a terbium internal standard (40 μL, 100 ppb). The platinum content was then determined using an Agilent 7900 ICP-MS in helium mode. The concentration of platinum in the cells was normalized to measured protein concentration described above.

[16] = tested on: doxorubicin-resistant A2780ADR ovarian cancer cell line
Method: as §5, §6

[17] = tested on: OVCAR8-OXR oxaliplatin-resistant human ovarian cancer cell line; experiment: Cell growth, resazurin assay, OVCAR8-OXR; details: for IC50: read-out: IC50 OVCAR8OXR; for IC80: read-out: IC80 OVCAR8OXR; for Fold Resistance (IC50, OVCAR8OXR vs OVCAR8): based on IC50 values; for Fold Resistance (IC80, OVCAR8OXR vs OVCAR8): based on IC80 values
Method: Cells were cultured in 10 mL of Advanced DMEM/F12 (ADMEM/F12), supplemented with 5% FBS, 2 mM GlutaMAX, and 1% Penicillin-Streptomycin in 10 cm tissue culture plates. Cells were then plated into 96-well plates with about 2.5×10^3 cells per well. Cells were plated with 200 μL per well of ADMEM/F12 supplemented with 5% FBS, 2 mM GlutaMAX, and 1% Penicillin-Streptomycin. […] The cells were then cultured for 72 hours following drug treatment, and cell growth was measured by resazurin assay.

[18] = tested on: A2780 human ovarian cancer cell line; experiment: Whole-cell platinum uptake by ICP-MS, A2780; details: three hours
Method: as §5, §6

COc1cccc2c1C(=O)c1c(O)c3c(c(O)c1C2=O)C[C@@](O)(C(=O)CO)C[C@@H]3O[C@H]1C[C@H](N)[C@H](O)[C@H](C)O1 [DOX, doxorubicin]
IC50 ([1]; Mus musculus): 0.058 µM
IC50 ([2]; Mus musculus): 0.045 µM
IC50 ([3]; Mus musculus): 0.075 µM
IC50 ([4]; Mus musculus): 0.0091 µM
IC50 ([5]; Mus musculus): 0.0065 µM
IC50 ([6]; Homo sapiens, HT-29): 0.038 µM
IC50 ([7]; Homo sapiens, MDA-MB-231): 0.075 µM
IC50 ([8]; Homo sapiens): 0.041 µM
IC50 (U2OS human osteosarcoma; Homo sapiens, U2OS): 0.013 µM
IC50 ([9]; Homo sapiens, A549): 0.023 µM
IC50 ([10]; Homo sapiens, HL-60): 0.043 µM
IC95 [11]: 0.16 µM
IC50 ([11]; Homo sapiens): 0.011 µM
IC90 ([11]; Homo sapiens): 0.075 µM
IC95 [12]: 1.6 µM
IC50 ([12]; Homo sapiens, A2780 ADR): 0.054 µM
IC90 ([12]; Homo sapiens, A2780 ADR): 0.62 µM
IC95 [13]: 0.54 µM
IC50 ([13]; Homo sapiens): 0.05 µM
IC90 ([13]; Homo sapiens): 0.39 µM
IC50 ([14]; Homo sapiens, OVCAR-8): 0.086 ± 0.003 µM
IC80 ([14]; Homo sapiens, OVCAR-8): 0.41 ± 0.02 µM
Platinum drug uptake ([15]; 0.2 μM): 0.023 ± 0.002 nmol/mg protein
Platinum drug uptake ([15]; 1 μM): 0.12 ± 0.01 nmol/mg protein
Platinum drug uptake ([15]; 5 μM): 0.63 ± 0.03 nmol/mg protein
Platinum drug uptake ([16]; human, 3 h, 0.2 μM): 0.0087 ± 0.0008 nmol/mg protein
Platinum drug uptake ([16]; human, 3 h, 1 μM): 0.051 ± 0.001 nmol/mg protein
Platinum drug uptake ([16]; human, 3 h, 5 μM): 0.36 ± 0.07 nmol/mg protein
IC50 ([17]; Homo sapiens, 72 h): 0.25 ± 0.01 µM
IC80 ([17]; Homo sapiens, 72 h): 0.74 ± 0.05 µM
Fold Resistance (IC50, OVCAR8OXR vs OVCAR8) ([17]; 72-h exposure): 2.9 fold
Fold Resistance (IC80, OVCAR8OXR vs OVCAR8) ([17]; 72-h exposure): 1.8 fold

O=C1[O][Pt]2([NH][C@@H]3CCCC[C@H]3[NH]2)[O]C1=O [Ox, oxaliplatin]
IC50 [1]: 2.2 µM
IC50 [2]: 1.5 µM
IC50 [3]: 4.1 µM
IC50 [4]: 1.4 µM
IC50 [5]: 2.2 µM
IC50 [6]: 0.47 µM
IC50 [7]: 0.92 µM
IC50 [8]: 1 µM
IC50 (U2OS human osteosarcoma): 0.58 µM
IC50 [9]: 0.4 µM
IC50 [10]: 0.56 µM
IC50 [11]: 0.17 µM
IC90 [11]: 0.59 µM
IC95 [11]: 5.6 µM
IC50 [12]: 0.43 µM
IC90 [12]: 2.4 µM
IC95 [12]: 29 µM
IC50 [13]: 0.43 µM
IC90 [13]: 6.6 µM
IC95 [13]: 13 µM
IC50 [14]: 0.58 ± 0.06 µM
IC80 [14]: 12 ± 3 µM
Platinum drug uptake (separate comparison experiment) [16]: 0.0065 ± 0.0004 nmol/mg protein
Platinum drug uptake ([16]; A2780ADR, [Drug] 0.20 μM, three hours): 0.0011 ± 0.0004 nmol/mg protein
Platinum drug uptake ([16]; A2780ADR, [Drug] 1.0 μM, three hours): 0.0039 ± 0.0001 nmol/mg protein
Platinum drug uptake ([16]; A2780ADR, [Drug] 5.0 μM, three hours): 0.023 ± 0.001 nmol/mg protein
Fold Resistance (IC50, OVCAR8OXR vs OVCAR8) ([17]; 72-h exposure): 14 fold
Fold Resistance (IC80, OVCAR8OXR vs OVCAR8) ([17]; 72-h exposure): 3.3 fold
IC50 ([17]; 72-h exposure): 8.2 ± 1.3 µM
IC80 ([17]; 72-h exposure): 40 ± 2 µM
Platinum drug uptake ([18]; A2780, [Drug] 0.20 μM): 0.0029 ± 0.0006 nmol/mg protein
Platinum drug uptake ([18]; A2780, [Drug] 1.0 μM): 0.0093 ± 0.0004 nmol/mg protein
Platinum drug uptake ([18]; A2780, [Drug] 5.0 μM): 0.050 ± 0.004 nmol/mg protein
Platinum drug uptake (separate comparison experiment) ([18]; A2780, single drug 1.0 μM or oxaliplatin 1.0 μM + doxorubicin 1.0 μM): 0.011 ± 0.000 nmol/mg protein
